Experimental data published in patent publication US12479870B2, “Base-modified cytidine nucleotides for leukemia therapy” (MEDIVIR AB, priority 2018, dated 2025).

Legend:
[1] = test system: MV4-11 cells; assay: Leukemia cell line CC50 assay (Cell Counting Kit-8, 5 days), MV4-11; format: cell-based; details: Homo sapiens, MV4-11, 120 h, AML, MV411 cell line
Method: MV4-11 cells (human B-myelomonocytic leukemia) from ATCC Cat no. CRL-9591 were grown in complete cell medium: IMDM (w. GLUTAMAX-1) Cat no. 31980022 (Fisher Scientific), 10% Fetal Bovine serum (FBS) HyClone Cat. no. SV30160.03, lot no RAB35924 (GE Healthcare Life Sciences), Penicillin 50 u/ml/Streptomycin 0.05 mg/ml PAA Cat. no. P11-010 from Fisher Scientific.
(§1) Leukemia cells were grown in a cell culture flask 75 cm2 with approximately 100 ml complete cell medium. The cells were counted using a Scepter-hand held automated cell counter, using 60 μm sensors (Millipore) and suspended in complete cell medium to 2×10^5cells. 100 μl of the cell suspension were seeded to all wells (2×10^4 cells/well).
(§2) The compounds were tested in twelve concentrations, […], 50 ? BM−5×10^−10 μM. 100 μl from a compound dilution plate were transferred to the cell assay plate=200 μl/well total volume and incubated for 5 days, at 37° C., 5% CO2 incubator.
(§3) After 5 days, 10 μl of KIT-8 was added and the culture was incubated for 3-4 hours, at 37° C., 5% CO2 incubator.
(§4) Plate were read in the spectrophotometer at wavelength 450 nm with a reference filter of 620 nm.
(§5) CC50 values are calculated by plotting the degree of inhibition (compared to the vehicle ctrl) against the logarithm of the compound concentration. […]

[2] = test system: THP-1 cells; assay: Leukemia cell line CC50 assay (Cell Counting Kit-8, 5 days), THP-1; format: cell-based; details: Homo sapiens, THP-1, 120 h, AML, THP1 cell line
Method: (§6) THP-1 cells (human acute monocytic leukemia) from ATCC Cat. no TIB-202 were grown in complete cell medium: RPMI-1640 medium Gibco Cat. no.11835-063 (Fisher Scientific), 10% Fetal Bovine serum (FBS), HyClone Cat. no. SV30160.03, lot no RAB35924 (GE Healthcare Life Sciences), Penicillin 50 u/ml/Streptomycin 0.05 mg/ml PAA Cat. no. P11-010 from Fisher Scientific.
as §1, §2, §3, §4, §5

[3] = test system: U-937 cells; assay: Leukemia cell line CC50 assay (Cell Counting Kit-8, 5 days), U-937; format: cell-based; details: Homo sapiens, U-937, 120 h, AML, U937 cell line
Method: as §6, with “U-937” for “THP-1”, “histiocytic lymphoma)” for “acute monocytic leukemia)”, “CRL-1593.2” for “TIB-202”, “50u/ml/Streptomycin” for “50 u/ml/Streptomycin”
as §1, §2, §3, §4, §5

[4] = test system: K-562 cells; assay: Leukemia cell line CC50 assay (Cell Counting Kit-8, 5 days), K-562; format: cell-based; details: Homo sapiens, 120 h, CML, K562 cell line
Method: K-562 cells (human chronic myelogenous leukemia) from ATCC Cat. no CCL-243 were grown in complete cell medium: IMDM (w. L-glutamine, 25 mM Hepes, w/o Phenol red) Cat no. 21056-023 (Fisher Scientific), 10% Fetal Bovine serum (FBS) HyClone Cat. no. SV30160.03, lot no RAB35924 (GE Healthcare Life Sciences), Penicillin 50u/ml/Streptomycin 0.05 mg/ml Cat. no. SV30010 HyClone (Fisher Scientific)
as §1, §2, §3, §4, §5

[5] = test system: MOLT-4 cells; assay: Leukemia cell line CC50 assay (Cell Counting Kit-8, 5 days), MOLT-4; format: cell-based; details: Homo sapiens, 120 h, ALL (T cell), MOLT-4 cell line
Method: as §6, with “MOLT-4” for “THP-1”, “(human T-cell,” for “(human”, “lymphoblastic” for “monocytic”, “CRL-1582” for “TIB-202”, “(FBS)” for “(FBS),”, “Scientific” for “Scientific.”
as §1, §2, §3, §4, §5

[6] = test system: Raji cells; assay: Leukemia cell line CC50 assay (Cell Counting Kit-8, 5 days), Raji; format: cell-based; details: Homo sapiens, 120 h, BL (B cell)
Method: as §6, with “Raji” for “THP-1”, “(B-lymphocyte from Burkitt's lymphoma)” for “(human acute monocytic leukemia)”, “CCL-86” for “TIB-202”
as §1, §2, §3, §4, §5

[7] = test system: CEM cells; assay: Leukemia cell line CC50 assay (Cell Counting Kit-8, 5 days), CEM; format: cell-based; details: Homo sapiens, CCRF-CEM, 120 h, ALL (T cell)
Method: CEM cells (T-lymphoblast from acute lymphoblastic leukemia) acquired from Swedish Institute for Infectious Disease Control (SMI) were grown in complete cell medium: RPMI-1640 medium (without L-glutamine) Cat. no. R7509 (Sigma Aldrich), 10% Fetal Bovine serum (FBS) HyClone Cat. no. SV30160.03, lot no RAB35924 (GE Healthcare Life Sciences), Penicillin 50u/ml/Streptomycin 0.05 mg/ml PAA Cat. no. P11-010 from Fisher Scientific, 2 mM Ultra glutamine 1 Cat. no BE17-605E/U1 (Lonza). • Cell culture flask 75 cm2, Cat. no. 83.1813 from Sarstedt AB. • Compound dilution plate, 96-well, V-bottom PP plate, Nunc Cat. no.249944 from Thermo Scientific. • Cell assay plate, 96-well, Cat. no. 128009296 from Fisher Scientific • Cell Counting Kit-8 CK04 from Dojindo. • Test compounds were made up to 10 mM stock solution in DMSO
as §1, with “cells/well). […]” for “cells/well).”
as §4, §5

[8] = test system: leukemia cell lines; assay: Average CC50 over the leukemia cell lines of Table 1; format: cell-based; details: average over the leukemia cell lines of Table 1
Method: as §1
CC50 values are calculated by plotting the degree of inhibition (compared to the vehicle ctrl) against the logarithm of the compound concentration. Result values in the dilution series are fitted to a 4-parameter sigmoidal dose-response curve described by the expression:
[formula] where: • A=Minimum • B=Slope. • C=Inflection point. The inflection point is defined as the point on the curve where the curvature changes direction or signs. • D=Maximum • F=fraction inhibition • The CC50 value is the x-value giving F=0.5, as tabulated in Table 1 below: […]

[9] = test system: HL60 cells; assay: Leukemia cell line CC50 assay (Cell Counting Kit-8, 5 days), HL60; format: cell-based; details: Homo sapiens, HL-60, 120 h, AML
Method: HL60 cells (human acute promyelocytic leukemia) from ATCC Cat. no CCL-240 were grown in complete cell medium: IMDM Cat. no 330-2005 (ATCC), 20% Fetal Bovine serum (FBS) HyClone Cat. no. SV30160.03, lot no RAB35924 (GE Healthcare Life Sciences), Penicillin 50u/ml/Streptomycin 0.05 mg/ml PAA Cat. no. P11-010 from Fisher Scientific
as §1, §2, §3, §4
CC50 values are calculated by plotting the degree of inhibition (compared to the vehicle ctrl) against the logarithm of the compound concentration. Result values in the dilution series are fitted to a 4-parameter sigmoidal dose-response curve described by the expression: […]

[10] = Blood stability, murine whole blood; format: in vitro ADME
Method: Stability of compounds in blood was assessed following incubation in murine or human whole blood for up to 120 minutes. Remaining compound was quantified by LC-MS/MS and resulting data were used to calculate intrinsic clearance (CLint) values: […]

[11] = Tolerability in SCID mice with human Hep3b xenograft (body weight, clinical signs); format: in vivo, mouse; details: 25 mg/kg i.p. BID x 5, SCID mice
Method: Compounds were prepared in PBS, n=9 mice per group. Body weights were monitored daily in three SCID mouse populations:
wherein the 5 day BID commenced 21 days after subcutaneous implantation with a human Hep3b xenograft.

[12] = test system: advanced, cytarabine-treatment failure, leukemia; details: cited from earlier work

stability in mouse blood [10]	Structure (SMILES)	CC50 [1]	CC50 [2]	CC50 [3]	CC50 [4]	CC50 [5]	CC50 [6]	CC50 [7]	CC50 [8]	CC50 [9]	tolerability observations (bodyweight, clinical signs) [11]	patients with transient decrease in peripheral blood and marrow blasts [12]
	CCC[C@H](C)OC(=O)[C@H](C)NP(=O)(OC[C@H]1OC[C@@H](n2cc(F)c(N)nc2=O)O1)Oc1cccc(C2CC2)c1 (single isomer, unassigned) [Prior art Ex 29 dia-2, reference compound]	7.8 nM	250 nM	240 nM	720 nM	2.9 nM	850 nM	98 nM	310 nM			
	CC[C@@H](C)OC(=O)[C@H](C)NP(=O)(OC[C@H]1OC[C@@H](n2cc(F)c(N)nc2=O)O1)Oc1ccccc1 (single isomer, unassigned) [Prior art Ex 32 dia 2, reference compound]	8.1 nM	200 nM	240 nM	440 nM	3.8 nM	1000 nM	52 nM	350 nM	890 nM		
stable in mouse blood	Nc1nc(=O)n([C@@H]2CO[C@H](CO)O2)cc1F [5-fluorotroxacitabine, 4-amino-5-fluoro-1-((25,4S)-2-(hydroxymethyl)-1,3-dioxolan-4-yl)pyrimidin-2(1H)-one, reference compound]											
	Nc1ccn([C@@H]2CO[C@H](CO)O2)c(=O)n1 [troxacitabine]										persistent bodyweight loss and clinical signs including piloerection, hunched posture and subdued behavior	Four
